Reference: patent US20100210700A1, “METHODS OF TREATMENT USING INTRAVENOUS FORMULATIONS COMPRISING TEMOZOLOMIDE” (SCHERING CORPORATION, priority 2007, published 2010)
Where two headings read alike, the source gives them in different places.

Columns and labels:
[1] = Two-way crossover pilot bioavailability study, IV (1-hour infusion) vs PO temozolomide; assay type: in vivo, human; conditions: for bioavailability / AUC / Cmax: human, plasma; for bioavailability: po, 150 mg/m^2/day, humans, n=13 patients; for AUC / Cmax: n = 13
Procedure: To validate the IV PK model, the first pass effects and oral bioavailability were determined in a two-way crossover pilot bioavailability study. This was a Phase-1, randomized, open-label pilot study designed to compare the relative bioavailability of IV and PO temozolomide in adult patients with histologically confirmed primary CNS malignancies. The study was conducted in conformance with Good Clinical Practices. Up to 18 patients (to yield 12 evaluable patients) were planned to be enrolled at 1 or 2 centers. 13 patients were enrolled at 2 centers (7 at Center 1, 6 at Center 2). All 13 patients were included in pharmacokinetic and safety analyses. Patients were followed for 23 days after treatment ended for safety evaluations.
After fulfilling all study eligibility requirements, the patients received temozolomide for 5 days (Days 1 to 5) during a 4-week treatment cycle. On Days 1, 2, and 5, patients received temozolomide (200 mg/m^2/day) as a PO dose. On Days 3 and 4, patients received Temozolomide (150 mg/m^2/day) as a PO dose on one day and as an IV dose on the other day. The IV dose was administered by 1-hour infusion (using an infusion pump) either on Day 3 or Day 4 according to a random code. Pharmacokinetic evaluations were performed on Days 3 and 4 for determination of concentrations of temozolomide and MTIC in plasma.

[2] = PO TMZ, Dose = 150 mg/m^2, Actual n = 12; cited from earlier work
[3] = Clinical bioequivalence study, IV (1.5-hr infusion) vs oral TMZ, primary CNS malignancies; assay type: in vivo, human; conditions: for Tmax / half-life / AUC / Cmax / concentration at 0 hr / concentration at 0.25 hr / concentration at 0.5 hr / concentration at 1 hr / concentration at 1.25 hr / concentration at 1.5 hr / concentration at 1.75 hr / concentration at 2 hr / concentration at 2.5 hr / concentration at 3 hr / concentration at 4 hr / concentration at 6 hr / concentration at 8 hr: human, plasma; for Tmax: read-out: Tmax, Median (range); for half-life: read-out: t½ terminal-phase half-life, Mean (CV, %) (converted); for concentration at 0 hr / concentration at 0.25 hr / concentration at 0.5 hr / concentration at 1 hr / concentration at 1.25 hr / concentration at 1.5 hr / concentration at 1.75 hr / concentration at 2 hr / concentration at 2.5 hr / concentration at 3 hr / concentration at 4 hr / concentration at 6 hr / concentration at 8 hr: read-out: Mean Temozolomide Concentration
Procedure: Twenty-two patients with primary CNS malignancies were enrolled in a clinical bioequivalence study and treated according to the methods of the present invention. Nineteen of the patients were considered to be pharmacokinetic evaluable. This study was a randomized, open-label, 2-way cross over study of the PK of oral and IV TMZ. The IV formulation of Example 3 is administered at a dosage of 150-200 mg/m^2 by intravenous infusion over a period of about 1.5 hours.
The patients are divided into two groups, those receiving Treatment A and those receiving Treatment B. The Treatment A patients receive oral TMZ (200 mg/m^2) on Days 1, 2 and 5, IV TMZ 150 mg/m2 on Day 3, and oral TMZ (150 mg/m^2) on Day 4 of a 28 day cycle. The Treatment B patients receive oral TMZ (200 mg/m^2) on Days 1, 2 and 5, Oral TMZ (150 mg/m^2) on Day 3 and IV TMZ (150 mg/m^2) on Day 4 of a 28 day cycle. Cmax and AUC for TMZ and MTIC are determined according to methods known to those skilled in the art on Days 3 and 4.

[4] = 1-hour infusion vs PO, 150 mg/m2/day
[5] = 1.5-hr infusion vs PO, 150 mg/m^2/day, n = 19
[6] = TMZ IV 1.5 hr infusion, 150 mg/m^2/day, n = 19
[7] = 150 mg/m2, TMZ PO, 150 mg/m^2/day, n = 19
[8] = IV 1.5 hr infusion, 150 mg/m^2/day, n = 19
[9] = IV 1.5 hr infusion, 150 mg/m^2/day, n = 18

In the case of `Cn1nnc2c(C(N)=O)ncn2c1=O` [TMZ, 3,4-dihydro-3-methyl-4-oxoimidazo[5,1-d]-as-tetrazine-8-carboxamide], the “AUC Ratio Estimate IV/PO” value [1, 4] was 104%, the “AUC ratio IV/PO, 90% C.I.” value [1, 4] was 97-112% and the “Cmax Ratio Estimate IV/PO” value [1, 4] was 114%. For the same compound, the “Cmax ratio IV/PO, 90% C.I.” value [1, 4] was 100-131%, the bioavailability ([1]; read-out: oral bioavailability) was 96% and the bioavailability ([1]; read-out: oral bioavailability, range) was 89 to 100%. It also gave an AUC ([1]; TMZ IV 1-hour infusion, 150 mg/m2/day, read-out: AUC of TMZ, IV Mean (least-squares)) of 21500 ng·h/mL, a Cmax ([1]; TMZ IV 1-hour infusion, 150 mg/m2/day, read-out: Cmax of TMZ, IV Mean (least-squares)) of 7100 ng/mL and an AUC ([1]; TMZ PO, 150 mg/m2/day, read-out: AUC of TMZ, PO Mean (least-squares)) of 20700 ng·h/mL. The Cmax ([1]; TMZ PO, 150 mg/m2/day, read-out: Cmax of TMZ, PO Mean (least-squares)) was 6200 ng/mL, the Maximum AUC [2] was 35400 ng·h/mL and the Maximum Cmax [2] was 16800 ng/mL. The Mean AUC [2] was 24800 ng·h/mL, the Mean Cmax [2] was 8800 ng/mL and the Minimum AUC [2] was 17700 ng·h/mL. The Minimum Cmax [2] was 2600 ng/mL, the “AUC(I) Ratio Estimate IV to PO” value [3, 5] was 105% and the “AUC(I) ratio IV to PO, 90% Confidence Interval” value [3, 5] was 102-108%. For the same compound, the “AUC(tf) Ratio Estimate IV to PO” value [3, 5] was 106%, the “AUC(tf) ratio IV to PO, 90% Confidence Interval” value [3, 5] was 103-109% and the “Cmax Ratio Estimate IV to PO” value [3, 5] was 97%. For the same compound, the “Cmax ratio IV to PO, 90% Confidence Interval” value [3, 5] was 91-102%, the “bioequivalence of IV (1.5-hr infusion) and oral formulations” value ([3]; Cmax, AUC(tf), AUC(I) of temozolomide and MTIC, n=19) was “bioequivalent” and the “tf time of final quantifiable sample, Mean (CV, %)” value [3, 6] was 8.00 (0) hr. For the same compound, the “tf time of final quantifiable sample, Mean (CV, %)” value ([3]; TMZ PO, 150 mg/m^2/day, n = 19) was 8.00 (0) hr, the Tmax [3, 7] was 1 h and the half-life [3, 7] was 1.91 h. For the same compound, the AUC ([3]; iv, 150 mg/m2, IV infusion about 1 hour to about 2 hours, single dose of 150 mg/m2, read-out: arithmetic AUC (from time zero to infinity) for temozolomide, range) was 17600 to 37000 ng·h/mL, the Cmax ([3]; iv, 150 mg/m2, IV infusion about 1 hour to about 2 hours, single dose of 150 mg/m2, read-out: arithmetic maximum plasma concentration (Cmax) of temozolomide, range) was 5500 to 10600 ng/mL and the AUC ([3]; iv, 150 mg/m2, IV infusion about 1 hour to about 2 hours, single dose of 150 mg/m2, read-out: arithmetic mean AUC (from time zero to infinity) for temozolomide) was roughly 25000 ng·h/mL. The Cmax ([3]; iv, 150 mg/m2, IV infusion about 1 hour to about 2 hours, single dose of 150 mg/m2, read-out: arithmetic mean maximum plasma concentration (Cmax) of temozolomide) was roughly 7400 ng/mL, the AUC ([3]; iv, 150 mg/m2, arithmetic mean AUC (from time zero to infinity) for temozolomide, IV infusion about 1 hour to about 2 hours, single dose of 150 mg/m2, heading: arithmetic mean AUC for temozolomide) was roughly 25000 ng·h/mL and the AUC ([3]; iv, 150 mg/m^2/day, TMZ IV 1.5 hr infusion, 150 mg/m^2/day, n = 19, read-out: AUC(I) of TMZ, Mean) was 25000 ng·h/mL. For the same compound, the AUC ([3]; iv, 150 mg/m^2/day, TMZ IV 1.5 hr infusion, 150 mg/m^2/day, n = 19, read-out: AUC(tf) of TMZ, Mean) was 23400 ng·h/mL, the Cmax ([3]; iv, 150 mg/m^2/day, TMZ IV 1.5 hr infusion, 150 mg/m^2/day, n = 19, read-out: Cmax of TMZ, arithmetic Mean) was 7440 ng/mL and the AUC ([3]; iv, 150 mg/m^2/day, TMZ IV 1.5 hr infusion, 150 mg/m^2/day, n = 19 PE, read-out: AUC(I) of TMZ, IV Mean (least-squares)) was 24600 ng·h/mL. For the same compound, the AUC ([3]; iv, 150 mg/m^2/day, TMZ IV 1.5 hr infusion, 150 mg/m^2/day, n = 19 PE, read-out: AUC(tf) of TMZ, IV Mean (least-squares)) was 23100 ng·h/mL, the Cmax ([3]; iv, 150 mg/m^2/day, TMZ IV 1.5 hr infusion, 150 mg/m^2/day, n = 19 PE, read-out: Cmax of TMZ, IV Mean (least-squares)) was 7290 ng/mL and the AUC ([3]; po, 150 mg/m2, TMZ PO, 150 mg/m^2/day, n = 19, read-out: AUC(I) of TMZ, Mean) was 23600 ng·h/mL. It also gave an AUC ([3]; po, 150 mg/m2, TMZ PO, 150 mg/m^2/day, n = 19, read-out: AUC(tf) of TMZ, Mean) of 22000 ng·h/mL, a Cmax ([3]; po, 150 mg/m2, TMZ PO, 150 mg/m^2/day, n = 19, read-out: Cmax of TMZ, arithmetic Mean) of 7680 ng/mL and an AUC ([3]; po, 150 mg/m2, TMZ PO, 150 mg/m^2/day, n = 19 PE, read-out: AUC(I) of TMZ, PO Mean (least-squares)) of 23400 ng·h/mL. It also gave an AUC ([3]; po, 150 mg/m2, TMZ PO, 150 mg/m^2/day, n = 19 PE, read-out: AUC(tf) of TMZ, PO Mean (least-squares)) of 21800 ng·h/mL, a Cmax ([3]; po, 150 mg/m2, TMZ PO, 150 mg/m^2/day, n = 19 PE, read-out: Cmax of TMZ, PO Mean (least-squares)) of 7540 ng/mL and a concentration at 0 hr [3, 8] of 0 ng/mL. It also gave a concentration at 0.25 hr [3, 9] of 2380 ng/mL, a concentration at 0.5 hr [3, 8] of 3670 ng/mL and a concentration at 1 hr [3, 8] of 5490 ng/mL. The concentration at 1.25 hr [3, 9] was 6590 ng/mL, the concentration at 1.5 hr [3, 8] was 7080 ng/mL and the concentration at 1.75 hr [3, 8] was 6100 ng/mL. For the same compound, the concentration at 2 hr [3, 8] was 5600 ng/mL, the concentration at 2.5 hr [3, 8] was 4590 ng/mL and the concentration at 3 hr [3, 9] was 3860 ng/mL. It also gave a concentration at 4 hr [3, 8] of 2810 ng/mL, a concentration at 6 hr [3, 8] of 1200 ng/mL and a concentration at 8 hr [3, 8] of 590 ng/mL. The concentration at 0 hr ([3]; PO, 150 mg/m^2/day, n = 19) was 0 ng/mL, the concentration at 0.25 hr ([3]; PO, 150 mg/m^2/day, n = 19) was 2110 ng/mL and the concentration at 0.5 hr ([3]; PO, 150 mg/m^2/day, n = 19) was 5320 ng/mL. For the same compound, the concentration at 1 hr ([3]; PO, 150 mg/m^2/day, n = 19) was 6050 ng/mL, the concentration at 1.25 hr ([3]; PO, 150 mg/m^2/day, n = 18) was 6120 ng/mL and the concentration at 1.5 hr ([3]; PO, 150 mg/m^2/day, n = 19) was 5770 ng/mL. The concentration at 1.75 hr ([3]; PO, 150 mg/m^2/day, n = 18) was 5360 ng/mL, the concentration at 2 hr ([3]; PO, 150 mg/m^2/day, n = 19) was 4890 ng/mL and the concentration at 2.5 hr ([3]; PO, 150 mg/m^2/day, n = 19) was 4000 ng/mL. The concentration at 3 hr ([3]; PO, 150 mg/m^2/day, n = 19) was 3440 ng/mL, the concentration at 4 hr ([3]; PO, 150 mg/m^2/day, n = 19) was 2410 ng/mL and the concentration at 6 hr ([3]; PO, 150 mg/m^2/day, n = 19) was 1170 ng/mL. It also gave a concentration at 8 hr ([3]; PO, 150 mg/m^2/day, n = 19) of 560 ng/mL, a Tmax [3, 6] of 1.5 h and a half-life [3, 6] of 1.82 h.
